pIC50: −log10 of the molar value.
Molecular target: Proto-oncogene tyrosine-protein kinase Src (Mus musculus, UniProt P05480)
Test: Kinase Assay
Description: 2,6,9-Trisubstituted purines were evaluated for their src kinase inhibitory activities using an ELISA assay.

Chain of Proto-oncogene tyrosine-protein kinase Src (P05480 2-535 limits assumed): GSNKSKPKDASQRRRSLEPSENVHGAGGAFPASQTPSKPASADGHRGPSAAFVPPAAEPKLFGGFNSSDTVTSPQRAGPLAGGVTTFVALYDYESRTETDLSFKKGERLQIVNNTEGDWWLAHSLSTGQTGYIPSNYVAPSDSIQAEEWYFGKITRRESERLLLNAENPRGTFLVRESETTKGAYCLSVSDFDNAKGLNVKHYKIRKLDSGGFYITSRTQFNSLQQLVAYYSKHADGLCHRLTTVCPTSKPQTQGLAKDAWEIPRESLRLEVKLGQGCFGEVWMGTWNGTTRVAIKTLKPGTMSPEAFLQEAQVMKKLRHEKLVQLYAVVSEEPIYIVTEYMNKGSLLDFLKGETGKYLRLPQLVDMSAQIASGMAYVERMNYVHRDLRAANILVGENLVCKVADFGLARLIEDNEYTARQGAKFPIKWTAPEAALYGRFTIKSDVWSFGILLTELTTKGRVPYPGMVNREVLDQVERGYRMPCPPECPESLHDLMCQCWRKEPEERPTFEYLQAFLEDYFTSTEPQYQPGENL

| SMILES | pIC50 |
| --- | --- |
| CCn1cnc2c(Nc3ccc(P(=O)(O)CP(=O)(O)O)cc3)nc(C3CCNCC3)nc21 [2,6,9-Trisubstituted Purine, 4] | 6.18 |
| CCn1cnc2c(Nc3ccccc3)nc([C@H]3CC[C@H](N)CC3)nc21 [2,6,9-Trisubstituted Purine, AP23517] | 7.14 |
| CCn1cnc2c(Nc3ccc(P(=O)(O)CP(=O)(O)O)cc3)nc(C[C@H]3CC[C@@H](N)CC3)nc21 [2,6,9-Trisubstituted Purine, 10] | 7.00 |

The remaining compounds from weak to strong by pIC50, led by results:

| pIC50 | SMILES |
| --- | --- |
| 5.64 | CCn1cnc2c(Nc3ccc(P(=O)(O)CP(=O)(O)O)cc3)nc(CC3CCNCC3)nc21 [2,6,9-Trisubstituted Purine, 5] |
| 5.64 | CCn1cnc2c(Nc3ccc(P(=O)(O)CP(=O)(O)O)cc3)nc(CC3CCCNC3)nc21 (stereo not drawn) [2,6,9-Trisubstituted Purine, 7] |
| 5.68 | CCn1cnc2c(Nc3ccc(P(=O)(O)CP(=O)(O)O)cc3)nc(CCCCN)nc21 [2,6,9-Trisubstituted Purine, 11] |
| 6.00 | CCn1cnc2c(Nc3ccc(P(=O)(O)CP(=O)(O)O)cc3)nc(CCC3CCNCC3)nc21 [2,6,9-Trisubstituted Purine, 6] |
| 6.69 | CCn1cnc2c(Nc3ccc(P(=O)(O)CP(=O)(O)O)cc3)nc(C[C@H]3CC[C@H](N)CC3)nc21 [2,6,9-Trisubstituted Purine, 9] |

From BindingDB's records for doi:10.1111/j.1747-0285.2007.00615.x (Ariad Pharmaceuticals, 2008)
